{"source": "patent US20160302411A1", "about": "“BLENDS AND THEIR USE IN THE CONTROLLING AND/OR TRAPPING OF MOTHS” (BIOFORSK (THE NORWEGIAN INSTITUTE FOR AGRICULTURAL AND …, priority 2013, published 2016)", "data": [{"test_system": "antennae of mated female C. nigricana", "experiment": "GC-EAD electro-antennography, antennal response to synthetic pea volatiles", "parameters": "species or system Cydia nigricana", "details": "10 μg in 10 μl hexane on filter paper, puff 10 ml/sec during 0.2 sec", "protocol": "(§1) C. nigricana were collected as larvae in the North of Hesse, Germany. The keeping of the insects followed the protocol of Thöming and Saucke (2011). Emerging adults mated in Plexiglas cages (30×30×30 cm) in a climate chamber (18±2° C., 60-70% RH, 18:6h L:D). The moths were provided with 10%-honey water solution and water until the experiment. Antennal recordings and wind tunnel tests were done with five-to-seven-days old mated females. After the experiments, females were dissected to verify their mating status and only mated females were used for analysis.\n(§2) The synthetic odour sources were prepared to mimic natural pea flower odour. The quantity, ratio and blend composition was based on the identification and quantification of compounds emitted from detached pea flowers (50 flowers/headspace sample; mean value, n=10) of P. sativum (cv. AVOLA). The synthetic analogues of all 28 identified compounds released from pea plant material (Table 1) were used for combined gas chromatography-electroantennal detection (GC-EAD) analysis.\n(§3) GC-EAD was used for antennal recordings on a HP 6890N gas chromatograph, equipped with an HP-5 (30 m×320 μm×0.25 μm; Agilent, Santa Clara, Calif., US) capillary GC column, programmed from 40° C. (hold for 0.5 min) at 8° C./min to 160° C., then 25° C./min to 230° C. (hold for 4 min), and coupled with an electro-antennogram apparatus (Syntech, Hilversum, The Netherlands). The outlet of the GC column was split in a 1:1 ratio between the flame ionization detector (FID) and a pair of cut pea moth antennae which was connected to the EAD. The antennae were mounted in a holder (Syntech) between two silver electrodes, using electrically conductive Gel (Parker, Fairfield, N.J., US). The EAD capillary effluent was delivered to the antennae through a heated transfer line (Syntech) in a glass tube (12 cm×8 mm) in which humidified air was flowing through. The antennal signal and the FID signal were amplified and recorded simultaneously using Syntech software. Each sample injected on the GC contained 5-9 synthetic compounds with different retention times. Each compound was injected at four doses (200 ng, 60 ng, 20 ng, 6 ng), equivalent to 100 ng, 30 ng, 10 ng, 3 ng tested on the antennae. The antennal responses towards compounds and dose rates, respectively, were replicated three to five times, always using a new pair of antennae. […] Only antennae with differences less than 5 μV between the puff before and after the treatment were used for analysis.", "values": [{"smiles": "C=C/C=C(\\C)CCC=C(C)C", "note": "[DMNT, 4,8-dimethyl-1, (E) 3,7-nonatriene, reference compound]", "antennal response to odour puff (antennal condition test)": "reproducible antennal responses"}]}, {"test_system": "antennae of mated female C. nigricana", "experiment": "GC-EAD electro-antennography, antennal response to synthetic pea volatiles", "parameters": "species or system Cydia nigricana", "details": "GC-EAD dose response over four doses (FIG. 1)", "protocol": "as §1, §2, §3", "values": [{"smiles": "CCCCCCO", "note": "[1-hexanol]", "increase of antennal response with dose, ANOVA P": 0.0003}, {"smiles": "CCC/C=C/C=O", "note": "[2-(E)-hexenal]", "increase of antennal response with dose, ANOVA P": 0.0139}, {"smiles": "CCC/C=C/CO", "note": "[(E)-2-hexen-1-ol]", "increase of antennal response with dose, ANOVA P": 0.0049}, {"smiles": "C=C/C(C)=C/CC=C(C)C", "note": "[(E)-β-ocimene]", "increase of antennal response with dose, ANOVA P": 0.0051}, {"smiles": "CC/C=C\\CCO", "note": "[(Z)-3-hexenol]", "increase of antennal response with dose, ANOVA P": 0.6578}, {"smiles": "CC/C=C\\CCOC(C)=O", "note": "[(Z)-3-hexenyl acetate]", "increase of antennal response with dose, ANOVA P": 0.0091}, {"smiles": "C=C/C(C)=C\\CC=C(C)C", "note": "[(Z)-β-ocimene]", "increase of antennal response with dose, ANOVA P": 0.0252}, {"smiles": "CCCCCCCCC=O", "note": "[nonanal]", "increase of antennal response with dose, ANOVA P": 0.0067}, {"smiles": "CCCCCCCC=O", "note": "[octanal]", "increase of antennal response with dose, ANOVA P": "< 0.0001"}]}]}
